Measurements published in patent US12590066B2, “Fused-heterocyclyl-carbonohydrazonoyl dicyanide compounds and use thereof” (KOREA INSTITUTE OF SCIENCE AND TECHNOLOGY, priority 2020, dated 2026).

How the values were obtained:
tau protein = target: T1, tau protein (Homo sapiens, UniProt P10636); test: Tau-BiFC cell model, inhibition of Forskolin-induced tau protein aggregation; type: cell-based; details: Forskolin 30 μM, 48 hours; for Tau BiFC in cells Response (% @10 μM): 10 μM compound, Forskolin-only group = 100% tau protein-aggregated state; for IC50: tau-BiFC cells
T1 construct: BiFC fluorescent-protein fragments (type and halves not specified); expressed in transfected cells
How it was run: (§1)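 Tau-BiFC cells co-treated 48 h with 30 μM forskolin and compounds (1, 3, 10 μM screen; 0.01–30 μM dose-response). BiFC fluorescence normalized to forskolin-only (100% aggregation) minus untreated gives aggregation inhibition and IC50; viability as Hoechst-stained nuclei count relative to forskolin-only.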

Tau-BiFC cells = test: Cell viability (stained nuclei count) in Tau-BiFC cells; type: cell-based; details: 10 μM compound, 48 hours; Forskolin-only group = 100% cell viability
How it was run: as §1

T1 sequence (P10636 1-441 isoform P10636-8): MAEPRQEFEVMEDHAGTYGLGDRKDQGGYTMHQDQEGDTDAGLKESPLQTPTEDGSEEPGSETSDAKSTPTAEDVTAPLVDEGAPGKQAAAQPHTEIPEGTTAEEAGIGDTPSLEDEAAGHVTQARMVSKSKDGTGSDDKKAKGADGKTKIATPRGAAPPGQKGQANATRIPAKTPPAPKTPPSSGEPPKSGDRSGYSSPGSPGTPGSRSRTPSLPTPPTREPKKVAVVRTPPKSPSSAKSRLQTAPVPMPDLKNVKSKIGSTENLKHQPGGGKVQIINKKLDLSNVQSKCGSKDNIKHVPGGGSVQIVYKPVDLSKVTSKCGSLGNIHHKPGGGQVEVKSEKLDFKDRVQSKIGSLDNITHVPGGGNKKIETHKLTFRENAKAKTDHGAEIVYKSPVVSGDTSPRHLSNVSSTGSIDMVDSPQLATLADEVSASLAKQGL

SMILES	Tau BiFC in cells Response (% @10 μM) (tau protein) [%]	IC50 (tau protein) [nM]	Cell viability (% @10 μM) (Tau-BiFC cells) [%]
Cn1c(=O)n(C)c2cc(NN=C(C#N)C#N)c(Cl)cc21 [Compound 10, (6-chloro-1,3-dimethyl-2-oxo-2,3-dihydro-1H-benzo[d]imidazol-5-yl)carbonohydrazonoyl dicyanide]	0	300	145.3
N#CC(C#N)=NNc1ccc2c(c1)oc(=O)n2C(F)F [Compound 21, (3-(difluoromethyl)-2-oxo-2,3-dihydrobenzo[d]oxazol-6-yl)carbonohydrazonoyl dicyanide]	0	600	135
N#CC(C#N)=NNc1ccc2c(c1)sc(=O)n2C(F)F [Compound 19, (3-(difluoromethyl)-2-oxo-2,3-dihydrobenzo[d]thiazol-6-yl)carbonohydrazonoyl dicyanide]	0	100	125.3
CC(C)n1c(=O)oc2cc(NN=C(C#N)C#N)ccc21 [Compound 20, (3-isopropyl-2-oxo-2,3-dihydrobenzo[d]oxazol-6-yl)carbonohydrazonoyl dicyanide]	0	100	106
CC(C)n1c(=O)sc2cc(NN=C(C#N)C#N)ccc21 [Compound 18, (3-isopropyl-2-oxo-2,3-dihydrobenzo[d]thiazol-6-yl)carbonohydrazonoyl dicyanide]	0	40	110.7
N#CC(C#N)=NNc1ccc2[nH]c(=O)oc2c1 [Compound 15, (2-oxo-2,3-dihydrobenzo[d]oxazol-6-yl)carbonohydrazonoyl dicyanide]	5.5	8400	127.7
Cn1c(=O)n(C)c2ncc(NN=C(C#N)C#N)cc21 [Compound 12, (1,3-dimethyl-2-oxo-2,3-dihydro-1H-imidazo[4,5-b]pyridin-6-yl)carbonohydrazonoyl dicyanide]	0	870	145.2
COc1cc(NN=C(C#N)C#N)cc2c1n(C)c(=O)n2C [Compound 33, (7-methoxy-1,3-dimethyl-2-oxo-2,3-dihydro-1H-benzo[d]imidazol-5-yl)carbonohydrazonoyl dicyanide]	−43	5	114
CCn1c(=O)n(C)c2ccc(NN=C(C#N)C#N)cc21 [Compound 35, (3-ethyl-1-methyl-2-oxo-2,3-dihydro-1H-benzo[d]imidazol-5-yl)carbonohydrazonoyl dicyanide]	−44	10	130
CC(C)n1c(=O)n(C(F)F)c2cc(NN=C(C#N)C#N)ccc21 [Compound 43, (3-(difluoromethyl)-1-isopropyl-2-oxo-2,3-dihydro-1H-benzo[d]imidazol-5-yl)carbonohydrazonoyl dicyanide]	−49	10	96
Cn1c(=O)[nH]c2cc(NN=C(C#N)C#N)ccc21 [Compound 17, (1-methyl-2-oxo-2,3-dihydro-1H-benzo[d]imidazol-5-yl)carbonohydrazonoyl dicyanide]	0	1200	94.38
CC(C)n1c(=O)oc2ccc(NN=C(C#N)C#N)cc21 [Compound 29, (3-isopropyl-2-oxo-2,3-dihydrobenzo[d]oxazol-5-yl)carbonohydrazonoyl dicyanide]	−31	70	133
CC(C)n1c(=O)n(C2CC2)c2ccc(NN=C(C#N)C#N)cc21 [Compound 42, (1-cyclopropyl-3-isopropyl-2-oxo-2,3-dihydro-1H-benzo[d]imidazol-5-yl)carbonohydrazonoyl dicyanide]	−52	80	124
Cn1c(=O)sc2cc(NN=C(C#N)C#N)ccc21 [Compound 14, (3-methyl-2-oxo-2,3-dihydrobenzo[d]thiazol-6-yl)carbonohydrazonoyl dicyanide]	0	60	129.1
N#CC(C#N)=NNc1ccc2[nH]c(=O)sc2c1 [Compound 13, (2-oxo-2,3-dihydrobenzo[d]thiazol-6-yl)carbonohydrazonoyl dicyanide]	0.8	200	115.8
CC(C)n1c(=O)n(C(C)C)c2ncc(NN=C(C#N)C#N)cc21 [Compound 34, (1,3-diisopropyl-2-oxo-2,3-dihydro-1H-imidazo[4,5-b]pyridin-6-yl)carbonohydrazonoyl dicyanide]	−45	50	120
CC(C)n1c(=O)n(C(C)C)c2cc(NN=C(C#N)C#N)ccc21 [Compound 23, (1,3-diisopropyl-2-oxo-2,3-dihydro-1H-benzo[d]imidazol-5-yl)carbonohydrazonoyl dicyanide]	0	100	117
CC(C)n1c(=O)n(C2CC2)c2ncc(NN=C(C#N)C#N)cc21 [Compound 53, (3-cyclopropyl-1-isopropyl-2-oxo-2,3-dihydro-1H-imidazo[4,5-b]pyridin-6-yl)carbonohydrazonoyl dicyanide]	−39	160	125
CC(C)n1c(=O)n(C)c2ccc(NN=C(C#N)C#N)cc21 [Compound 36, (3-isopropyl-1-methyl-2-oxo-2,3-dihydro-1H-benzo[d]imidazol-5-yl)carbonohydrazonoyl dicyanide]	−57	20	104
Cn1c(=O)oc2cc(NN=C(C#N)C#N)ccc21 [Compound 16, (3-methyl-2-oxo-2,3-dihydrobenzo[d]oxazol-6-yl)carbonohydrazonoyl dicyanide]	0	600	129.8
